# Numbers after ± are expanded uncertainties.
# Experiment: activity coefficient (dimensionless); of the first substance listed, at infinite dilution; xn = mol fraction of the nth substance listed
# Conditions: 308 K; 101.33 kPa; Liquid; Chromatography; x1 = 0
row,SMILES,activity coefficient
1,C=CCCCCCC [oct-1-ene] + CCCCCCCCCC[N+](C)(C)CCCCCCCCCC.[O-][Cl+3]([O-])([O-])[O-],1.1 ± 0.11
2,CCCCCCCC [octane] + CCCCCCCCCC[N+](C)(C)CCCCCCCCCC.F[B-](F)(F)F,4.41 ± 0.46
3,CCCCCCCC [octane] + CCCCCCCCCC[N+](C)(C)CCCCCCCCCC.[O-][Cl+3]([O-])([O-])[O-],3.98 ± 0.42
4,CCCCC [pentane] + CCCCCCCCCC[N+](C)(C)CCCCCCCCCC.F[B-](F)(F)F,1.85 ± 0.19
5,CCCCC [pentane] + CCCCCCCCCC[N+](C)(C)CCCCCCCCCC.[O-][Cl+3]([O-])([O-])[O-],1.77 ± 0.18

# Same assay, conditions: 323 K; 101.33 kPa; Liquid; Chromatography; x1 = 0
row,SMILES,activity coefficient
1,C=CCCCCCC [oct-1-ene] + CCCCCCCCCC[N+](C)(C)CCCCCCCCCC.[O-][Cl+3]([O-])([O-])[O-],0.999 ± 0.1
2,CCCCCCCC [octane] + CCCCCCCCCC[N+](C)(C)CCCCCCCCCC.F[B-](F)(F)F,3.71 ± 0.39
3,CCCCCCCC [octane] + CCCCCCCCCC[N+](C)(C)CCCCCCCCCC.[O-][Cl+3]([O-])([O-])[O-],3.69 ± 0.39
4,CCCCC [pentane] + CCCCCCCCCC[N+](C)(C)CCCCCCCCCC.F[B-](F)(F)F,1.51 ± 0.16
5,CCCCC [pentane] + CCCCCCCCCC[N+](C)(C)CCCCCCCCCC.[O-][Cl+3]([O-])([O-])[O-],1.59 ± 0.17
6,CC(C)O [propan-2-ol] + CCCCCCCCCC[N+](C)(C)CCCCCCCCCC.F[B-](F)(F)F,3.47 ± 0.37
7,CC(C)O [propan-2-ol] + CCCCCCCCCC[N+](C)(C)CCCCCCCCCC.[O-][Cl+3]([O-])([O-])[O-],1.5 ± 0.16
8,C1CCOC1 [tetrahydrofuran] + CCCCCCCCCC[N+](C)(C)CCCCCCCCCC.F[B-](F)(F)F,0.662 ± 0.07
9,C1CCOC1 [tetrahydrofuran] + CCCCCCCCCC[N+](C)(C)CCCCCCCCCC.[O-][Cl+3]([O-])([O-])[O-],0.478 ± 0.053
10,ClC(Cl)Cl [trichloromethane] + CCCCCCCCCC[N+](C)(C)CCCCCCCCCC.F[B-](F)(F)F,0.318 ± 0.04
11,ClC(Cl)Cl [trichloromethane] + CCCCCCCCCC[N+](C)(C)CCCCCCCCCC.[O-][Cl+3]([O-])([O-])[O-],0.224 ± 0.034

# Same assay, conditions: 338 K; 101.33 kPa; Liquid; Chromatography; x1 = 0
row,SMILES,activity coefficient
1,C=CCCCCCC [oct-1-ene] + CCCCCCCCCC[N+](C)(C)CCCCCCCCCC.[O-][Cl+3]([O-])([O-])[O-],1.04 ± 0.11
2,CCCCCCCC [octane] + CCCCCCCCCC[N+](C)(C)CCCCCCCCCC.F[B-](F)(F)F,3.13 ± 0.33
3,CCCCCCCC [octane] + CCCCCCCCCC[N+](C)(C)CCCCCCCCCC.[O-][Cl+3]([O-])([O-])[O-],3.42 ± 0.36
4,CCCCC [pentane] + CCCCCCCCCC[N+](C)(C)CCCCCCCCCC.F[B-](F)(F)F,1.24 ± 0.13
5,CCCCC [pentane] + CCCCCCCCCC[N+](C)(C)CCCCCCCCCC.[O-][Cl+3]([O-])([O-])[O-],1.44 ± 0.15
6,CC(C)O [propan-2-ol] + CCCCCCCCCC[N+](C)(C)CCCCCCCCCC.F[B-](F)(F)F,2.41 ± 0.25
7,CC(C)O [propan-2-ol] + CCCCCCCCCC[N+](C)(C)CCCCCCCCCC.[O-][Cl+3]([O-])([O-])[O-],1.54 ± 0.16
8,C1CCOC1 [tetrahydrofuran] + CCCCCCCCCC[N+](C)(C)CCCCCCCCCC.F[B-](F)(F)F,0.619 ± 0.066
9,C1CCOC1 [tetrahydrofuran] + CCCCCCCCCC[N+](C)(C)CCCCCCCCCC.[O-][Cl+3]([O-])([O-])[O-],0.46 ± 0.052
10,ClC(Cl)Cl [trichloromethane] + CCCCCCCCCC[N+](C)(C)CCCCCCCCCC.F[B-](F)(F)F,0.346 ± 0.042
11,ClC(Cl)Cl [trichloromethane] + CCCCCCCCCC[N+](C)(C)CCCCCCCCCC.[O-][Cl+3]([O-])([O-])[O-],0.29 ± 0.038

# Same assay, conditions: 353 K; 101.33 kPa; Liquid; Chromatography; x1 = 0
row,SMILES,activity coefficient
1,C=CCCCCCC [oct-1-ene] + CCCCCCCCCC[N+](C)(C)CCCCCCCCCC.[O-][Cl+3]([O-])([O-])[O-],0.938 ± 0.096
2,CCCCCCCC [octane] + CCCCCCCCCC[N+](C)(C)CCCCCCCCCC.F[B-](F)(F)F,2.89 ± 0.3
3,CCCCCCCC [octane] + CCCCCCCCCC[N+](C)(C)CCCCCCCCCC.[O-][Cl+3]([O-])([O-])[O-],3.16 ± 0.33
4,CCCCC [pentane] + CCCCCCCCCC[N+](C)(C)CCCCCCCCCC.F[B-](F)(F)F,1.08 ± 0.11
5,CCCCC [pentane] + CCCCCCCCCC[N+](C)(C)CCCCCCCCCC.[O-][Cl+3]([O-])([O-])[O-],1.28 ± 0.13
6,CC(C)O [propan-2-ol] + CCCCCCCCCC[N+](C)(C)CCCCCCCCCC.F[B-](F)(F)F,1.9 ± 0.2
7,CC(C)O [propan-2-ol] + CCCCCCCCCC[N+](C)(C)CCCCCCCCCC.[O-][Cl+3]([O-])([O-])[O-],1.11 ± 0.11
8,C1CCOC1 [tetrahydrofuran] + CCCCCCCCCC[N+](C)(C)CCCCCCCCCC.F[B-](F)(F)F,0.695 ± 0.073
9,C1CCOC1 [tetrahydrofuran] + CCCCCCCCCC[N+](C)(C)CCCCCCCCCC.[O-][Cl+3]([O-])([O-])[O-],0.536 ± 0.058
10,ClC(Cl)Cl [trichloromethane] + CCCCCCCCCC[N+](C)(C)CCCCCCCCCC.F[B-](F)(F)F,0.399 ± 0.047
11,ClC(Cl)Cl [trichloromethane] + CCCCCCCCCC[N+](C)(C)CCCCCCCCCC.[O-][Cl+3]([O-])([O-])[O-],0.302 ± 0.039
